Drawing on PubChem BioAssay (NCI), this text covers TGI for 7 molecules.

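1) Cells in 96-well plates. 2) Compound, 48 h, 5 concentrations. 3) Linear interpolation between surrounding doses. 4) Unreached endpoint = highest concentration. TGI is the concentration that stops growth completely.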 A value given as a limit tells only on which side of the number the result lay.

Among the test systems are HOP-62 NSCLC; UACC-257 melanoma; BT-549 breast; UACC-62 melanoma; RXF 393 renal; NCI/ADR-RES ovarian; PC-3 prostate; UO-31 renal; M14 melanoma; K-562 leukemia; OVCAR-4 ovarian; SN12C renal; LOX IMVI melanoma; 786-0 renal; SK-MEL-2 melanoma; SF-295 CNS; DU-145 prostate; OVCAR-5 ovarian; KM12 colon; SK-OV-3 ovarian.
What all share (experiment): DTP human tumour cell line panel, 48 h

Turning to `O=C1c2cc3c(cc2NC(c2ccccc2F)C1O)OCO3` (stereo not given), the total growth inhibition concentration (TGI) was greater than 66.1 µM in the test on HOP-62 NSCLC; greater than 100 µM in the test on UACC-257 melanoma; greater than 100 µM in the test on BT-549 breast; 64 µM in the test with UACC-62 melanoma; greater than 64.9 µM in the test with RXF 393 renal; greater than 64.7 µM in the test with NCI/ADR-RES ovarian. Also, the TGI is greater than 100 µM in the test on PC-3 prostate; greater than 75.8 µM with UO-31 renal; greater than 100 µM with M14 melanoma; greater than 100 µM in the test on K-562 leukemia; greater than 84.9 µM in the test with OVCAR-4 ovarian; greater than 66.9 µM in the test with SN12C renal. Besides, the concentration for total growth inhibition (TGI) with LOX IMVI melanoma is greater than 100 µM; with 786-0 renal, 48.1 µM; with SK-MEL-2 melanoma, greater than 100 µM; in the test with SF-295 CNS, 43.6 µM; with DU-145 prostate, greater than 100 µM; in the test with OVCAR-5 ovarian, greater than 75.9 µM. The total growth inhibition concentration (TGI) was greater than 100 µM with KM12 colon and 51.1 µM in the test on SK-OV-3 ovarian.

Consider `Cc1c(C#N)c2nnn(-c3cccc(Cl)c3)c(=O)n2c1-c1ccccc1`, for which the TGI in the test on HOP-62 NSCLC was 7.81 µM; in the test with UACC-257 melanoma, greater than 100 µM; in the test on BT-549 breast, greater than 100 µM; in the test on UACC-62 melanoma, 36 µM; in the test with RXF 393 renal it was 5.84 µM; with NCI/ADR-RES ovarian, greater than 100 µM. Further, the concentration for total growth inhibition (TGI) in the test on PC-3 prostate was 9.91 µM; with UO-31 renal, greater than 100 µM; with M14 melanoma, greater than 100 µM; in the test on K-562 leukemia it was 4.03 µM; with OVCAR-4 ovarian, greater than 100 µM; in the test on SN12C renal, 62 µM. Besides, the concentration for total growth inhibition (TGI) was greater than 100 µM with LOX IMVI melanoma; greater than 100 µM in the test on 786-0 renal; 8.95 µM in the test with SK-MEL-2 melanoma; 4.98 µM in the test on SF-295 CNS; 40.4 µM in the test on DU-145 prostate; greater than 100 µM with OVCAR-5 ovarian. The total growth inhibition concentration (TGI) in the test on KM12 colon is 14.9 µM; in the test on SK-OV-3 ovarian it was greater than 100 µM.

Take `Nc1nc(N)c2nc(CN(C=O)c3ccc(C(=O)O)cc3)cnc2n1`: the TGI in the test with HOP-62 NSCLC is greater than 100 µM; with UACC-257 melanoma, greater than 100 µM; in the test with BT-549 breast, greater than 94.7 µM; in the test with UACC-62 melanoma, greater than 100 µM; in the test on RXF 393 renal, greater than 100 µM; in the test on NCI/ADR-RES ovarian, greater than 45.2 µM. In addition, the TGI in the test with PC-3 prostate, in the test with UO-31 renal, in the test with M14 melanoma, in the test on K-562 leukemia, with OVCAR-4 ovarian and with SN12C renal was greater than 100 µM each time. The total growth inhibition concentration (TGI) in the test on LOX IMVI melanoma, in the test with 786-0 renal, in the test on SK-MEL-2 melanoma, with SF-295 CNS, in the test on DU-145 prostate and with OVCAR-5 ovarian was greater than 100 µM throughout. Also, the total growth inhibition concentration (TGI) with KM12 colon and in the test with SK-OV-3 ovarian was greater than 100 µM in each case.

For the molecule `COCN1C(=O)[C@@H]2CCCN2C(=O)c2ccc(N)cc21`, the TGI with HOP-62 NSCLC, with UACC-257 melanoma, in the test with BT-549 breast, with UACC-62 melanoma, in the test with RXF 393 renal and with NCI/ADR-RES ovarian was greater than 100 µM in each case. In addition, the concentration for total growth inhibition (TGI) in the test with PC-3 prostate, with UO-31 renal, in the test on M14 melanoma, in the test with K-562 leukemia, with OVCAR-4 ovarian and in the test on SN12C renal was greater than 100 µM each time. Also, the total growth inhibition concentration (TGI) in the test with LOX IMVI melanoma, with 786-0 renal, in the test with SK-MEL-2 melanoma, in the test on SF-295 CNS, with DU-145 prostate and in the test on OVCAR-5 ovarian was greater than 100 µM in each case. For the same molecule, the total growth inhibition concentration (TGI) in the test on KM12 colon and with SK-OV-3 ovarian was greater than 100 µM in each case.

`O=C(/C=C/c1ccc(-c2ccccc2)cc1)NCc1ccc(C(=O)NCCc2ccccc2)cc1`: the concentration for total growth inhibition (TGI) in the test on HOP-62 NSCLC is greater than 100 µM; in the test with UACC-257 melanoma, greater than 100 µM; with BT-549 breast, greater than 100 µM; with UACC-62 melanoma it was greater than 100 µM; in the test on RXF 393 renal it was 94.9 µM; with NCI/ADR-RES ovarian it was greater than 100 µM. Moreover, the TGI in the test with PC-3 prostate, in the test on UO-31 renal, in the test with M14 melanoma, in the test on K-562 leukemia, in the test with OVCAR-4 ovarian and in the test on SN12C renal was greater than 100 µM in each case. Moreover, the concentration for total growth inhibition (TGI) in the test with LOX IMVI melanoma, with 786-0 renal, in the test with SK-MEL-2 melanoma, with SF-295 CNS, in the test with DU-145 prostate and with OVCAR-5 ovarian was greater than 100 µM each time. The concentration for total growth inhibition (TGI) in the test with KM12 colon and with SK-OV-3 ovarian was greater than 100 µM each time.

As for `COC(=O)/C=C(C)/C=C\COC1CCCCO1` (stereo not given), the TGI in the test on HOP-62 NSCLC, with UACC-257 melanoma, in the test with BT-549 breast, in the test on UACC-62 melanoma, with RXF 393 renal and with NCI/ADR-RES ovarian was greater than 100 µM throughout. In addition, the TGI in the test with PC-3 prostate, with UO-31 renal, with M14 melanoma, with K-562 leukemia, in the test on OVCAR-4 ovarian and in the test with SN12C renal was greater than 100 µM throughout. Further, the TGI in the test with LOX IMVI melanoma, in the test with 786-0 renal, in the test with SK-MEL-2 melanoma, with SF-295 CNS, in the test with DU-145 prostate and in the test on OVCAR-5 ovarian was greater than 100 µM each time. The concentration for total growth inhibition (TGI) in the test on KM12 colon and in the test with SK-OV-3 ovarian was greater than 100 µM throughout.

`CC(=O)c1csc2c1C(=O)c1ccccc1C2=O`: the total growth inhibition concentration (TGI) with HOP-62 NSCLC was determined as 4.36 µM; with UACC-257 melanoma it was 2.92 µM; with BT-549 breast it was 3.01 µM; in the test on UACC-62 melanoma, 3.73 µM; with RXF 393 renal, 26.7 µM; with NCI/ADR-RES ovarian, 16.6 µM. In addition, the TGI in the test with PC-3 prostate was greater than 100 µM; with UO-31 renal it was 6.13 µM; with M14 melanoma it was 2.65 µM; in the test with K-562 leukemia it was greater than 100 µM; in the test with OVCAR-4 ovarian, 18.3 µM; in the test on SN12C renal, 5.86 µM. Further, the TGI was 31.3 µM in the test with LOX IMVI melanoma; greater than 22.3 µM with 786-0 renal; 10.6 µM with SK-MEL-2 melanoma; 3 µM in the test with SF-295 CNS; 3.21 µM in the test with DU-145 prostate; 5.45 µM in the test on OVCAR-5 ovarian. Further, the TGI is 3.68 µM in the test with KM12 colon and greater than 100 µM in the test on SK-OV-3 ovarian.
